Results as given in ChEMBL document CHEMBL1158215, “Three new cytotoxic sesterterpenes from the marine sponge Hyrtios cf. erectus” (J Nat Prod, 1996).
Converted amounts (≈) assume the structure as drawn.

System: P388
Experiment: Cytotoxicity against mouse P388 cells
Format: functional, cell-based

| Compound | IC50 [µg/mL] |
| --- | --- |
| CC(=O)OC[C@]1(C)CCC[C@]2(C)[C@H]3CC[C@@]4(C)[C@@H](CC=C5C(=O)O[C@@H](O)[C@@H]54)[C@]3(C)CC[C@@H]12 | 0.9 (≈ 2.02 µM) |
| CC1(C)CCC[C@]2(C)[C@H]3C[C@@H](O)[C@]4(C)[C@H]5OC(=O)C=C5[C@@H](O)C[C@H]4[C@]3(C)CC[C@@H]12 | 0.4 (≈ 0.994 µM) |
| CC(=O)O[C@@H]1C[C@@H]2[C@@]3(C)CCCC(C)(C)[C@@H]3CC[C@@]2(C)[C@@H]2C[C@H](O)C3=CC(=O)O[C@@H]3[C@@]12C | 2.1 (≈ 4.72 µM) |
